Assays:
[1] = system: cerebellar granule neurons; assay: Apoptosis of neurons transfected with dominant-negative B-Raf or LacZ in LK plus GW5074; assay type: cell-based, rat; conditions: LK + 1 uM GW5074, 24 hours
Protocol: A dominant-negative […] expression vector, pSRa GST B-Raf S728A (full length human B-Raf with Serine to Alanine mutation at position 728) was gifted to us by Dr. Angus M. MacNicol, University of Arkansas for Medical Sciences, Little Rock, Ark. Neuronal cultures were transfected with CMV-LacZ or the dominant-negative B-Raf construct using the calcium phosphate method 5 days after plating of the cultures. […] The proportion of transfected neurons that were apoptotic was quantified 24 hours later.

VEGFR2 = VEGFR2 (Homo sapiens, UniProt P35968); conditions: Lackey et al., 2000; cited from earlier work
mice = assay: 3-Nitropropionic acid (3-NP) model of Huntington's disease, striatal lesions; assay type: in vivo; conditions: GW5074 5 mg/kg body weight intraperitoneally
From the text: 3-Nitropropionic acid (3-NP) administration in rodents and nonhuman primates has served as a useful experimental model for HD (reviewed in Brouillet et al., 1999). 3-NP is an irreversible inhibitor of succinate dehydrogenase (SDH; Complex II), which causes prolonged mitochondrial energy impairment and replicates most of the clinical and pathophysiological hallmarks of HD including selective striatal degeneration, spontaneous choreiform and dystonic movements (Brouillet et al., 1999).
Mice were purchased from Charles River (Wilmington, Mass.). 3-NP was dissolved in water and the solution brought to pH 7.4 with sodium hydroxide. 3NP was administered to 8-week old B6CBA male mice in ten intraperitoneal injections (50 mg/kg twice a day for 5 days). […] Control animals received saline injections. On the day following the 5 days of injection, mice were deeply anesthetized, intracardially perfused, brains removed, post fixed in 4% paraformaldehyde and cryoprotected. Coronal sections were cut on a cryostat at 50 micron and stained for Nissl substance (cresyl violet).

B-Raf = assay: Activity of B-Raf immunoprecipitated from neuronal lysates, MEK substrate; assay type: cell-based, rat; conditions: LK + 1 uM GW5074, 1 hour
Protocol: The reaction mixture was subjected to Western analysis using a phospho-MEK antibody as probe.
Activities of endogenous C-Raf and B-Raf activity was assayed by measuring the ability of kinase immunoprecipitated from neuronal lysates to phosphorylate a kinase-dead recombinant GST-MEK1 substrate. Following immunoprecipitation and multiple washes with lysis buffer, lysis buffer supplemented with 350 mM NaCl, and kinase buffer (25 mM HEPES pH 7.4 and 10 mM MgCl2), in vitro kinase assays are performed on the immune complexes using purified recombinant GST-MEK1 K97M protein as a substrate in kinase buffer supplemented with 85 μM ATP for 35 minutes at 30° C. Reactions are stopped by the addition of 3×SDS sample buffer and boiled for five minutes. Proteins are resolved by SDS-PAGE and subjected to Western blotting. The level of phosphorylated MEK is detected by a phospho-MEK antibody.

cdk1 = cdk1 (Homo sapiens, UniProt P06493); conditions: Lackey et al., 2000; cited from earlier work
Chain of cdk1 (P06493 whole entry, species assumed): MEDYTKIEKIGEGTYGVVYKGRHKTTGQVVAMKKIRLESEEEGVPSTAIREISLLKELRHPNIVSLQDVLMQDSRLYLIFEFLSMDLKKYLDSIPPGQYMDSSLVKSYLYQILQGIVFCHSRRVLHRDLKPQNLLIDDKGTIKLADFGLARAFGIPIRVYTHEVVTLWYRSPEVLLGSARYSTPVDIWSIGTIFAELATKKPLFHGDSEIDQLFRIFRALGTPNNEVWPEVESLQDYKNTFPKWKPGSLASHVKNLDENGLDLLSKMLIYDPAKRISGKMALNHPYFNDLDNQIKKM
Chain of cdk1 (P14635 whole entry partner, species assumed): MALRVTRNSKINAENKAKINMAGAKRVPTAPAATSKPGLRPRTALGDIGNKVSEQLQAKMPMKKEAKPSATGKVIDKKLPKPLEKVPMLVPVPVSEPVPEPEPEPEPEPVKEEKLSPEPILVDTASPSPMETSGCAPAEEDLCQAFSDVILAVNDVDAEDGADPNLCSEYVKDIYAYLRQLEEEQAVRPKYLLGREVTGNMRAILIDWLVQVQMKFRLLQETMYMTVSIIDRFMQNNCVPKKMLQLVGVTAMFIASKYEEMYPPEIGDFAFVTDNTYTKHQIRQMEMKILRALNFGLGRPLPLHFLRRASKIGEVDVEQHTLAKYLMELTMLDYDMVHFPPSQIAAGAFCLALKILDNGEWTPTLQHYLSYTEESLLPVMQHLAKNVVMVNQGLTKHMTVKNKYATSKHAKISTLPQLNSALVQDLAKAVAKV

Chain of VEGFR2 (P35968 20-1356, species assumed): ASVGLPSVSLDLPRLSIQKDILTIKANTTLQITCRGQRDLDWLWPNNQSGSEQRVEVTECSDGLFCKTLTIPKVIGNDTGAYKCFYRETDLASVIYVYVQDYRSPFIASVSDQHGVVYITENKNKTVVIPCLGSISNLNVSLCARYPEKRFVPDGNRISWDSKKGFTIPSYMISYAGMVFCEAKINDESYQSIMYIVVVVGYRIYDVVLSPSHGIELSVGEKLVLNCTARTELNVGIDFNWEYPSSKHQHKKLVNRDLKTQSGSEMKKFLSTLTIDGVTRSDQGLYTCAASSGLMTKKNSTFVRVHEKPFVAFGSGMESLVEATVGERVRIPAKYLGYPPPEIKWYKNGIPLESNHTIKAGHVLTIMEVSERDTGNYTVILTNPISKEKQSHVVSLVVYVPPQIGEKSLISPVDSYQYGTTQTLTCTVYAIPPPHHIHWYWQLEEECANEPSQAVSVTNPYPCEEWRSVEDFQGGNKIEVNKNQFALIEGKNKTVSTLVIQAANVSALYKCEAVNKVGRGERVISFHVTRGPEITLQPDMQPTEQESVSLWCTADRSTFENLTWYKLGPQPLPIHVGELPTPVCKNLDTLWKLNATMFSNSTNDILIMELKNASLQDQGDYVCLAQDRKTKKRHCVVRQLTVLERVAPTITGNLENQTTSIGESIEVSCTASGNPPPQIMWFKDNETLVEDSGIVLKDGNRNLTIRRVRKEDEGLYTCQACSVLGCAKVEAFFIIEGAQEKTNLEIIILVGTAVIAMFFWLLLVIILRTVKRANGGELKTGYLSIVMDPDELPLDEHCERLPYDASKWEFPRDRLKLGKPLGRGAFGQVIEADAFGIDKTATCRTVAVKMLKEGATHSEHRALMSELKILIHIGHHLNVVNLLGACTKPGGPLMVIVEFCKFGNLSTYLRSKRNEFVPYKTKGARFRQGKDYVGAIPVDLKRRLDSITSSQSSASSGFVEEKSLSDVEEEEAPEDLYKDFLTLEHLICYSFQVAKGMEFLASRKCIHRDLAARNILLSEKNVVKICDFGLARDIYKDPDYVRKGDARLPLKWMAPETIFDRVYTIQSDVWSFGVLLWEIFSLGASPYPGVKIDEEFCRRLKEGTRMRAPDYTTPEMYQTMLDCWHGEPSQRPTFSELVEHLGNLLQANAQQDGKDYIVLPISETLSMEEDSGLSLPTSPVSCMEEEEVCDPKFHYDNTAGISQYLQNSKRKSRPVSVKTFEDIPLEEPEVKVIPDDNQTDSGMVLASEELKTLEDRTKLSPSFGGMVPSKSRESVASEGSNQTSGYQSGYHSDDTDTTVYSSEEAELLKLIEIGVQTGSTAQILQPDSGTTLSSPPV

O=C1Nc2ccc(I)cc2C1=Cc1cc(Br)c(O)c(Br)c1 [GW5074, 5-Iodo-3-[(3,5-dibromo-4-hydroxyphenyl)methylene]-2-indolinone]
death of neurons ([1]; LacZ control): less than 10% | death of infected neurons ([1]; dominant-negative B-Raf, data not shown): 80% | effect on activity of VEGFR2 (VEGFR2): no effect | 3-NP-induced striatal degeneration (mice): completely prevented | B-Raf activity in neurons (B-Raf): elevated further | effect on activity of cdk1 (cdk1): no effect

From patent US20050250837A1, “Use of C-Raf inhibitors for the treatment of neurodegenerative diseases” (priority 2002, published 2005)
